These results are taken from patent publication US12428406B2 (PMV Pharmaceuticals, Inc., priority 2019, dated 2025).

In this assay the target is T1, p53 Y220C (Homo sapiens, UniProt P04637, Y220C).
T1 construct: The recombinant protein was a truncation mutant containing only amino acids 94-312 of p53; made in house; host or cells: E. coli
T1 sequence (P04637 94-312, change not shown): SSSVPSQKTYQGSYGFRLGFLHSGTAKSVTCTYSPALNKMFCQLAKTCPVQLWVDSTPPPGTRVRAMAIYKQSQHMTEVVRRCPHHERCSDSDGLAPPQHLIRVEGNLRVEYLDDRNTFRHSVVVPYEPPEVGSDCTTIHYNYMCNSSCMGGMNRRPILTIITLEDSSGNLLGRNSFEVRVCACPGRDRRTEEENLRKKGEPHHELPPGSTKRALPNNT
The assay is described as follows: In vitro DNA binding activity assay (HTRF / TR-FRET): stabilization of p53 Y220C and increase of its DNA binding activity. It counts as biochemical. Particulars: recombinant His-tagged p53 Y220C DNA binding domain (aa 94-312), biotin-labeled consensus DNA, incubated at 27° C. or 29° C. for 60 min. An outline of the steps: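 Homogeneous time-resolved fluorescence with E. coli-derived p53 Y220C and biotinylated consensus DNA. Room-temperature incubations of 15 and 20 min precede reading. SC150 denotes the compound concentration required for 50% increased DNA binding.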
On the technique in general: Time-resolved FRET reads energy transfer from a long-lived donor to a nearby acceptor.
Take `CCC(=O)OC(COC)CN1CCC(Nc2cccc3c2cc(C#CCNc2ccc(C(=O)NC)cc2OC)n3CC(F)(F)F)CC1` (stereo not drawn) [Compound 657A, 1-methoxy-3-(4-{[2-(3-{[2-methoxy-4-(methylcarbamoyl)phenyl]amino}prop-1-yn-1-yl)-1-(2,2,2-trifluoroethyl)-1lH-indol-4-yl]amino}piperidin-1-yl)propan-2-yl propanoate]: the “SC150 (concentration of the compound required to increase the DNA binding activity by 50%)” value was “+ (+ = 0 μM ≤ SC150 < 0.05 μM)”.
To `CNC(=O)c1ccc(NCC#Cc2cc3c(NC4CCN(CC(O)CO)CC4)cccc3n2CC(F)(F)F)c(OC)c1` (stereo not drawn) [Compound 658A, 4-{[3-(4-{[1-(2,3-dihydroxypropyl)piperidin-4-yl]amino}-1-(2,2,2-trifluoroethyl)-1H-indol-2-yl)prop-2-yn-1-yl]amino}-3-methoxy-N-methylbenzamide] belongs “+ (+ = 0 μM ≤ SC150 < 0.05 μM)”; to `CNC(=O)c1ccc(NCC#Cc2cc3c(NC4CCN(CC(O)COC)CC4)cccc3n2CC(F)(F)F)c(OCCC#N)c1` (stereo not drawn) [Compound 659A, 3-(2-cyanoethoxy)-4-{[3-(4-{[1-(2-hydroxy-3-methoxypropyl)piperidin-4-yl]amino}-1-(2,2,2-trifluoroethyl)-1H-indol-2-yl)prop-2-yn-1-yl]amino}-N-methylbenzamide], “+ (+ = 0 μM ≤ SC150 < 0.05 μM)”; to `CCOCC(O)CN1CCC(Nc2cccc3c2cc(C#CCNc2ccc(S(C)(=O)=O)cc2OC)n3CC(F)(F)F)CC1` (stereo not drawn) [Compound 660A, 1-ethoxy-3-{4-[(2-{3-[(4-methanesulfonyl-2-methoxyphenyl)amino]prop-1-yn-1-yl}-1-(2,2,2-trifluoroethyl)-1H-indol-4-yl)amino]piperidin-1-yl}propan-2-ol], “+ (+ = 0 μM ≤ SC150 < 0.05 μM)”.
As to `CC(O)CN1CCC(Nc2cccc3c2cc(C#CCNc2ccc(S(C)(=O)=O)cc2OCC#N)n3CC(F)(F)F)CC1` (stereo not drawn) [Compound 661A, 2-(2-{[3-(4-{[1-(2-hydroxypropyl)piperidin-4-yl]amino}-1-(2,2,2-trifluoroethyl)-1H-indol-2-yl)prop-2-yn-1-yl]amino}-5-methanesulfonylphenoxy)acetonitrile], the “SC150 (concentration of the compound required to increase the DNA binding activity by 50%)” value is “+ (+ = 0 μM ≤ SC150 < 0.05 μM)”.
Consider `CCS(=O)(=O)c1ccc(NCC#Cc2cc3c(NC4CCN(CC(O)COC)CC4)cccc3n2CC(F)(F)F)c(OC)c1` (stereo not drawn) [Compound 662A, 1-(4-{[2-(3-{[4-(ethanesulfonyl)-2-methoxyphenyl]amino}prop-1-yn-1-yl)-1-(2,2,2-trifluoroethyl)-1H-indol-4-yl]amino}piperidin-1-yl)-3-methoxypropan-2-ol], for which the “SC150 (concentration of the compound required to increase the DNA binding activity by 50%)” value is “+ (+ = 0 μM ≤ SC150 < 0.05 μM)”.
`CNC(=O)c1ccc(NCC#Cc2cc3c(NC4CCN(CC(O)COC)CC4)cccc3n2CC(F)(F)F)c(OCF)c1` (stereo not drawn) [Compound 663A, 3-(fluoromethoxy)-4-{[3-(4-{[1-(2-hydroxy-3-methoxypropyl)piperidin-4-yl]amino}-1-(2,2,2-trifluoroethyl)-1H-indol-2-yl)prop-2-yn-1-yl]amino}-N-methylbenzamide]: the “SC150 (concentration of the compound required to increase the DNA binding activity by 50%)” value is “+ (+ = 0 μM ≤ SC150 < 0.05 μM)”.
With `COCC(O)CN1CCC(Nc2cccc3c2cc(C#CCNc2ccc(S(C)(=O)=O)cc2OCF)n3CC(F)(F)F)CC1` (stereo not drawn) [Compound 664A, 1-(4-{[2-(3-{[2-(fluoromethoxy)-4-methanesulfonylphenyl]amino}prop-1-yn-1-yl)-1-(2,2,2-trifluoroethyl)-1H-indol-4-yl]amino}piperidin-1-yl)-3-methoxypropan-2-ol], the “SC150 (concentration of the compound required to increase the DNA binding activity by 50%)” value is “+ (+ = 0 μM ≤ SC150 < 0.05 μM)”.
Regarding `COCC(O)CN1CCC(Nc2cccc3c2cc(C#CCNc2ccc(C(C)(C)C#N)cc2OC)n3CC(F)(F)F)CC1` (stereo not drawn) [Compound 665A, 2-(4-{[3-(4-{[1-(2-hydroxy-3-methoxypropyl)piperidin-4-yl]amino}-1-(2,2,2-trifluoroethyl)-1H-indol-2-yl)prop-2-yn-1-yl]amino}-3-methoxyphenyl)-2-methylpropanenitrile], the “SC150 (concentration of the compound required to increase the DNA binding activity by 50%)” value is “+ (+ = 0 μM ≤ SC150 < 0.05 μM)”.
For the compound `COC[C@@H](O)CN1CCC(Nc2cccc3c2cc(C#CCNc2ccc(S(C)(=O)=O)cc2OCF)n3CC(F)(F)F)CC1` [Compound 666A, (2S)-1-(4-{[2-(3-{[2-(fluoromethoxy)-4-methanesulfonylphenyl]amino}prop-1-yn-1-yl)-1-(2,2,2-trifluoroethyl)-1H-indol-4-yl]amino}piperidin-1-yl)-3-methoxypropan-2-ol], the “SC150 (concentration of the compound required to increase the DNA binding activity by 50%)” value is given as “+ (+ = 0 μM ≤ SC150 < 0.05 μM)”.
Consider `COC[C@H](O)CN1CCC(Nc2cccc3c2cc(C#CCNc2ccc(S(C)(=O)=O)cc2OCF)n3CC(F)(F)F)CC1` [Compound 667A, (2R)-1-(4-{[2-(3-{[2-(fluoromethoxy)-4-methanesulfonylphenyl]amino}prop-1-yn-1-yl)-1-(2,2,2-trifluoroethyl)-1H-indol-4-yl]amino}piperidin-1-yl)-3-methoxypropan-2-ol], for which the “SC150 (concentration of the compound required to increase the DNA binding activity by 50%)” value was “+ (+ = 0 μM ≤ SC150 < 0.05 μM)”.
For `COCC(O)CN1CCC(Nc2cccc3c2cc(C#CCNc2ccc(S(C)(=O)=O)cc2OC(F)F)n3CC(F)(F)F)CC1` (stereo not drawn) [Compound 668A, 1-(4-{[2-(3-{[2-(difluoromethoxy)-4-methanesulfonylphenyl]amino}prop-1-yn-1-yl)-1-(2,2,2-trifluoroethyl)-1H-indol-4-yl]amino}piperidin-1-yl)-3-methoxypropan-2-ol] the value was “+ (+ = 0 μM ≤ SC150 < 0.05 μM)”; for `COc1cc(S(C)(=O)=O)ccc1NCC#Cc1cc2c(NC3CCN(CC(O)COCC(O)CO)CC3)cccc2n1CC(F)(F)F` (stereo not drawn) [Compound 669A, 3-(2-hydroxy-3-{4-[(2-{3-[(4-methanesulfonyl-2-methoxyphenyl)amino]prop-1-yn-1-yl}-1-(2,2,2-trifluoroethyl)-1H-indol-4-yl)amino]piperidin-1-yl}propoxy)propane-1,2-diol], “+ (+ = 0 μM ≤ SC150 < 0.05 μM)”.
As for `COCC(O)CN1CCC(Nc2cccc3c2cc(C#CCNc2cc(S(C)(=O)=O)ccc2OC)n3CC(F)(F)F)CC1` (stereo not drawn) [Compound 670A, 1-{4-[(2-{3-[(5-methanesulfonyl-2-methoxyphenyl)amino]prop-1-yn-1-yl}-1-(2,2,2-trifluoroethyl)-1H-indol-4-yl)amino]piperidin-1-yl}-3-methoxypropan-2-ol], the “SC150 (concentration of the compound required to increase the DNA binding activity by 50%)” value was “++++ (++++ = 0.2 μM ≤ SC150 < 1 μM)”.
As for `COCC(O)CN1CCC(Nc2cccc3c2cc(C#CCNc2ccc(S(C)(=O)=O)cc2)n3CC(F)(F)F)CC1` (stereo not drawn) [Compound 672A, 1-{4-[(2-{3-[(4-methanesulfonylphenyl)amino]prop-1-yn-1-yl}-1-(2,2,2-trifluoroethyl)-1H-indol-4-yl)amino]piperidin-1-yl}-3-methoxypropan-2-ol], the “SC150 (concentration of the compound required to increase the DNA binding activity by 50%)” value is given as “+ (+ = 0 μM ≤ SC150 < 0.05 μM)”.
Take `COc1cc(S(C)(=O)=O)ccc1NCC#Cc1cc2c(NC3CCN(CC(O)COCC(F)(F)F)CC3)cccc2n1CC(F)(F)F` (stereo not drawn) [Compound 673A, 1-{4-[(2-{3-[(4-methanesulfonyl-2-methoxyphenyl)amino]prop-1-yn-1-yl}-1-(2,2,2-trifluoroethyl)-1H-indol-4-yl)amino]piperidin-1-yl}-3-(2,2,2-trifluoroethoxy)propan-2-ol]: the “SC150 (concentration of the compound required to increase the DNA binding activity by 50%)” value is on record as “+ (+ = 0 μM ≤ SC150 < 0.05 μM)”.
Consider `COc1cc(S(C)(=O)=O)ccc1NCC#Cc1cc2c(NC3CC[N+]4(CC3)COCC(O)C4)cccc2n1CC(F)(F)F` (stereo not drawn) [Compound 674A, 4-hydroxy-9-[(2-{3-[(4-methanesulfonyl-2-methoxyphenyl)amino]prop-1-yn-1-yl}-1-(2,2,2-trifluoroethyl)-1H-indol-4-yl)amino]-2-oxa-6λ^5-azaspiro[5.5]undecan-6-ylium], for which the “SC150 (concentration of the compound required to increase the DNA binding activity by 50%)” value is on record as “+ (+ = 0 μM ≤ SC150 < 0.05 μM)”.
In the case of `COCCCN1CCC(Nc2cccc3c2cc(C#CCNc2ccc(S(C)(=O)=O)cc2OC)n3CC(F)(F)F)CC1` [Compound 675A, 2-{3-[(4-methanesulfonyl-2-methoxyphenyl)amino]prop-1-yn-1-yl}-N-[1-(3-methoxypropyl)piperidin-4-yl]-1-(2,2,2-trifluoroethyl)-1H-indol-4-amine], the “SC150 (concentration of the compound required to increase the DNA binding activity by 50%)” value is reported as “+ (+ = 0 μM ≤ SC150 < 0.05 μM)”.
Take `COCC(O)CN1CCC(Nc2cccc3c2c(C)c(C#CCNc2ccc(S(C)(=O)=O)cc2OC)n3CC(F)(F)F)CC1` (stereo not drawn) [Compound 676A, 1-{4-[(2-{3-[(4-methanesulfonyl-2-methoxyphenyl)amino]prop-1-yn-1-yl}-3-methyl-1-(2,2,2-trifluoroethyl)-1H-indol-4-yl)amino]piperidin-1-yl}-3-methoxypropan-2-ol]: the “SC150 (concentration of the compound required to increase the DNA binding activity by 50%)” value is recorded as “+++ (+++ = 0.1 μM ≤ SC150 < 0.2 μM)”.
Regarding `COCC(O)CN1CCC(Nc2cccc3c2cc(C#CCNc2cc(F)c(S(C)(=O)=O)cc2OC)n3CC(F)(F)F)CC1` (stereo not drawn) [Compound 677A, 1-{4-[(2-{3-[(5-fluoro-4-methanesulfonyl-2-methoxyphenyl)amino]prop-1-yn-1-yl}-1-(2,2,2-trifluoroethyl)-1H-indol-4-yl)amino]piperidin-1-yl}-3-methoxypropan-2-ol], the “SC150 (concentration of the compound required to increase the DNA binding activity by 50%)” value is reported as “+ (+ = 0 μM ≤ SC150 < 0.05 μM)”.
Consider `COc1cc(S(C)(=O)=O)ccc1NCC#Cc1cc2c(NC3CCN(C4COC4)CC3)cccc2n1CC(F)(F)F` [Compound 678A, 2-{3-[(4-methanesulfonyl-2-methoxyphenyl)amino]prop-1-yn-1-yl}-N-[1-(oxetan-3-yl)piperidin-4-yl]-1-(2,2,2-trifluoroethyl)-1H-indol-4-amine], for which the “SC150 (concentration of the compound required to increase the DNA binding activity by 50%)” value is listed as “+ (+ = 0 μM ≤ SC150 < 0.05 μM)”.
